# From US20210380683A1, “MODULATION OF IRF-4 AND USES THEREOF” (THE METHODIST HOSPITAL SYSTEM, priority 2018, published 2021)
# System: Balb/c heart allograft in WT B6 mice
# Assay: Balb/c heart allograft survival in WT B6 recipients
# Format: in vivo, mouse
# Details: 3 mg/kg every other day from day 0 to day 12; WT B6 recipients of Balb/c hearts
# Description: Murine heterotopic heart transplantation. Heart transplantation in mice was performed by a previously described method (Miyahara et al., 2012; Chen et al., 2007). In brief, hearts from Balb/c donors were transplanted into 8 to 10-week-old male WT B6, Irf4^fl/flCd4-Cre, CD45.1+ congenic, or Rag1−/− recipient mice. Pulmonary artery and aorta of donor heart were cut open, remaining heart vessels were tied off, and heart was removed. […] Anastomosis was made by 11-0 sutures running continuously. 6-0 silk thread was removed, and abdomen was then closed by 5-0 sutures in two layers. Heart graft survival was monitored daily by palpation, and the day of complete cessation of heartbeat was considered as the day of rejection. Recipient mice were i.p. injected with Rat IgG, anti-PD-L1 (10F.9G2), anti-CTLA-4 (9D9), anti-CD4 (GK1.5), anti-CD8 (53-6.7), or anti-CD25 (PC-61.5.3) mAbs obtained from Bio-X-Cell (West Lebanon, N.H.), oral gavaged with trametinib (Selleck Chemicals, Houston, Tex.) or corn oil, or i.v. transferred with WT B6, Irf4^−/−, TEa, TEa Irf4^−/−, or IRF4 re-introduced Irf4^−/− T cells. At various days post-transplant, splenocytes and graft infiltrating cells were obtained for flow cytometry analysis, and allografts were sectioned and stained with hematoxylin and eosin for microscopic evaluation.
smiles,measurement,value
CC(=O)Nc1cccc(-n2c(=O)n(C3CC3)c(=O)c3c(Nc4ccc(I)cc4F)n(C)c(=O)c(C)c32)c1 [trametinib],heart allograft survival (MST),13.17±0.75 days
